According to ChEMBL document CHEMBL4011590, “Structure-activity relationship studies on 3,5-dinitrophenyl tetrazoles as antitubercular agents” (Eur J Med Chem, 2017):
In brackets after ≈: the same amount, converted by molar mass.

Assays:
[1] = system: Mycobacterium tuberculosis; test: Antimycobacterial activity against Mycobacterium tuberculosis H37Rv CNCTC My 331/88 after 14 days by micromethod; type: functional; conditions: H37Rv CNCTC My 331/88, 336 h
[2] = system: Mycobacterium tuberculosis; test: Antimycobacterial activity against Mycobacterium tuberculosis H37Rv CNCTC My 331/88 after 21 days by micromethod; type: functional; conditions: H37Rv CNCTC My 331/88, 504 h
Mycobacterium avium [3] = test: Antimycobacterial activity against Mycobacterium avium CNCTC My 330/80 after 14 days by micromethod; type: functional; conditions: CNCTC My 330/80, 336 h
Mycobacterium avium [4] = test: Antimycobacterial activity against Mycobacterium avium CNCTC My 330/80 after 21 days by micromethod; type: functional; conditions: CNCTC My 330/80, 504 h
Mycobacterium kansasii [5] = test: Antimycobacterial activity against Mycobacterium kansasii CNCTC My 235/80 after 7 days by micromethod; type: functional; conditions: CNCTC My 235/80, 168 h
Mycobacterium kansasii [6] = test: Antimycobacterial activity against Mycobacterium kansasii CNCTC My 235/80 after 14 days by micromethod; type: functional; conditions: CNCTC My 235/80, 336 h
Mycobacterium kansasii [7] = test: Antimycobacterial activity against Mycobacterium kansasii CNCTC My 235/80 after 21 days by micromethod; type: functional; conditions: CNCTC My 235/80, 504 h
Mycobacterium kansasii [8] = test: Antimycobacterial activity against Mycobacterium kansasii isolate 6509/96 after 7 days by micromethod; type: functional; conditions: isolate 6509/96, 168 h
Mycobacterium kansasii [9] = test: Antimycobacterial activity against Mycobacterium kansasii isolate 6509/96 after 14 days by micromethod; type: functional; conditions: isolate 6509/96, 336 h
Mycobacterium kansasii [10] = test: Antimycobacterial activity against Mycobacterium kansasii isolate 6509/96 after 21 days by micromethod; type: functional; conditions: isolate 6509/96, 504 h
CHO-K1 = test: Cytotoxicity against CHOK1 cells after 24 hrs by MTT assay; type: cell-based; conditions: Cricetulus griseus, CHO-K1, 24 h

Structure (SMILES)	MIC99 [1] [µM]	MIC99 [2] [µM]	MIC99 (Mycobacterium avium [3]) [µM]	MIC99 (Mycobacterium avium [4]) [µM]	MIC99 (Mycobacterium kansasii [5]) [µM]	MIC99 (Mycobacterium kansasii [6]) [µM]	MIC99 (Mycobacterium kansasii [7]) [µM]	MIC99 (Mycobacterium kansasii [8]) [µM]	MIC99 (Mycobacterium kansasii [9]) [µM]	MIC99 (Mycobacterium kansasii [10]) [µM]	IC50 (CHO-K1) [µM]
COc1ccc(-n2nnnc2SCn2nnc(-c3cc([N+](=O)[O-])cc([N+](=O)[O-])c3)n2)cc1	0.25 (≈ 0.114 µg/mL)	0.5 (≈ 0.228 µg/mL)	1 (≈ 0.456 µg/mL)	1 (≈ 0.456 µg/mL)	0.5 (≈ 0.228 µg/mL)	1 (≈ 0.456 µg/mL)	2 (≈ 0.913 µg/mL)	0.25 (≈ 0.114 µg/mL)	0.5 (≈ 0.228 µg/mL)	1 (≈ 0.456 µg/mL)	–
O=[N+]([O-])c1cc(-c2nnn(Cc3ccc(Cl)c(Cl)c3)n2)cc([N+](=O)[O-])c1	0.125 (≈ 0.0494 µg/mL)	0.125 (≈ 0.0494 µg/mL)	4 (≈ 1.58 µg/mL)	8 (≈ 3.16 µg/mL)	0.25 (≈ 0.0988 µg/mL)	0.5 (≈ 0.198 µg/mL)	1 (≈ 0.395 µg/mL)	0.25 (≈ 0.0988 µg/mL)	0.5 (≈ 0.198 µg/mL)	0.5 (≈ 0.198 µg/mL)	37
O=[N+]([O-])c1cc(-c2nnn(CCCCSc3nnnn3-c3ccc(Cl)c(Cl)c3)n2)cc([N+](=O)[O-])c1	0.25 (≈ 0.134 µg/mL)	0.25 (≈ 0.134 µg/mL)	2 (≈ 1.07 µg/mL)	4 (≈ 2.15 µg/mL)	0.5 (≈ 0.269 µg/mL)	1 (≈ 0.537 µg/mL)	1 (≈ 0.537 µg/mL)	0.5 (≈ 0.269 µg/mL)	1 (≈ 0.537 µg/mL)	1 (≈ 0.537 µg/mL)	–
O=[N+]([O-])c1cc(-c2nnn(CCSc3nnnn3-c3ccc(Cl)c(Cl)c3)n2)cc([N+](=O)[O-])c1	0.25 (≈ 0.127 µg/mL)	0.25 (≈ 0.127 µg/mL)	2 (≈ 1.02 µg/mL)	4 (≈ 2.04 µg/mL)	0.25 (≈ 0.127 µg/mL)	0.5 (≈ 0.255 µg/mL)	1 (≈ 0.509 µg/mL)	0.5 (≈ 0.255 µg/mL)	1 (≈ 0.509 µg/mL)	1 (≈ 0.509 µg/mL)	–
COc1ccccc1-n1nnnc1SCn1nnc(-c2cc([N+](=O)[O-])cc([N+](=O)[O-])c2)n1	0.25 (≈ 0.114 µg/mL)	0.25 (≈ 0.114 µg/mL)	32 (≈ 14.6 µg/mL)	32 (≈ 14.6 µg/mL)	32 (≈ 14.6 µg/mL)	32 (≈ 14.6 µg/mL)	32 (≈ 14.6 µg/mL)	32 (≈ 14.6 µg/mL)	32 (≈ 14.6 µg/mL)	32 (≈ 14.6 µg/mL)	–
CCCCCCCCCCCCCCCCn1nnnc1SCn1nnc(-c2cc([N+](=O)[O-])cc([N+](=O)[O-])c2)n1	4 (≈ 2.3 µg/mL)	8 (≈ 4.6 µg/mL)	125 (≈ 71.8 µg/mL)	250 (≈ 144 µg/mL)	16 (≈ 9.2 µg/mL)	32 (≈ 18.4 µg/mL)	32 (≈ 18.4 µg/mL)	8 (≈ 4.6 µg/mL)	16 (≈ 9.2 µg/mL)	32 (≈ 18.4 µg/mL)	–
CCCn1nnc(-c2cc([N+](=O)[O-])cc([N+](=O)[O-])c2)n1	8 (≈ 2.23 µg/mL)	16 (≈ 4.45 µg/mL)	32 (≈ 8.9 µg/mL)	62.5 (≈ 17.4 µg/mL)	16 (≈ 4.45 µg/mL)	32 (≈ 8.9 µg/mL)	32 (≈ 8.9 µg/mL)	16 (≈ 4.45 µg/mL)	32 (≈ 8.9 µg/mL)	32 (≈ 8.9 µg/mL)	–
